In assay [1] the test system is mice. In words: Reduction of motor ability, rotorod. The class given is in vivo. Particulars: Mus musculus, ip, 50% decrease in mean time on the rotorod. How it is done: Following a method of Kinnard and Carr, J. Pharmacol. Exp. Therap., 121, 354 (1957), groups of 10 mice are preselected for their ability to remain upon a horizontal rotating (15 rpm) rod (rotorod) for 120 seconds. The mice are dosed with the test compound and tested at various times. The percent change in mean time upon the rotorod from the pre-drug control time of 120 seconds is calculated for each dose group. […] The ED50 is defined as the dose of compound producing a 50% decrease in mean time on the rotorod.

For assay [2], the system named is morphine-induced Straub tail. In words: Antagonism of morphine-induced Straub tail (muscle relaxant activity). It counts as in vivo. Particulars: Mus musculus, ip; mice, i.p., 15 min before morphine sulfate s.c. How it is done:
The characteristic elevation of the mouse tail (Straub tail) following morphine administration is due to a sustained, centrally mediated reflex contraction of the sacrococcygeus dorsalis muscle. Five to ten mice are used in each test, weight (18 to 30 grams) and placed in a Plexiglass observation chamber 2 to 3 minutes prior to injection. Animals are treated with the test compound at log doses, ca. 10 ml/kg, based upon the ED50 obtained from the Rotorod test (reduction of motor ability). Fifteen minutes later the desired dose of morphine sulfate, ca. 10 ml/kg, is injected subcutaneously and the mice observed for a period of 30 minutes following morphine administration for the presence or absence of Straub tail (defined as elevation of tail at 90° C. or more).

The test system of assay [3] is mice. Description: Acetic acid writhing syndrome test for analgesic activity. The settings on record: for ED50: Mus musculus, sc. The class given is in vivo, mouse. How it is done: J. Pharmacol., 22, 2246 (1964).
Groups of 5 to 10 mice are administered one or more doses of the test compound by the desired route (but not intraperitoneally). At a selected time the mice are administered acetic acid, 0.4 ml (0.25% v/v solution) i.p. Five minutes later, the mice are observed for a period of 15 minutes to determine the appearance of squirming (abdominal writhing), and the number of squirms for each mouse is determined.
For ED50 determination, four or more doses of compound are tested in groups of 10 mice. The following ED50 's for analgesic activity were observed and determined.

Assay [4] relates to Spontaneously hypertensive rats. In words: Systolic arterial blood pressure in spontaneously hypertensive rats (antihypertensive activity). The class given is in vivo, rat. Particulars: for Change In Systolic Blood Pressure From Control Post Treatment: * p < 0.05. The procedure: Spontaneously hypertensive rates (males 250-300 g), obtained from the Charles River Breeding Laboratories, are divided into different treatment groups of 12 rats each. On separate days, one group of 12 rats is given 3, 10 or 30 mg/kg of the test compound, trans-3,4,4a,5,6,11b-hexahydro-10-fluoro-2H-[1]benzoxepino[5,4-b]-1,4-oxazine hydrochloride, by gavage and another group of 12 rats is given water (vehicle, 5 ml/kg).
Systolic arterial blood pressure is recorded from the tail of each rat using an occluding cuff and transducer. Systolic arterial blood pressure is recorded prior and subsequent to the administration of drug or vehicle at 1, 2, 3 and 4 hours post treatment.

Where [5] appears, read: 0.5 h, oral, pretreatment time 30 minutes.
The mark [6] stands for this setting: 0.5 h, subcutaneous, pretreatment time 30 minutes.
Setting [7] is: 1 h, subcutaneous, pretreatment time 60 minutes.
Where [8] appears, read: 2 h, subcutaneous, pretreatment time 120 minutes.

We go through four molecules from patent US4766212A, “2H-[1]benzoxepino[5,4-b]-1,4-oxazine derivatives” (Merrell Dow Pharmaceuticals Inc., priority 1987, dated 1988).

The structures appear in SMILES notation. Where only a bound is given, the exact number is not on record here.

For the molecule `Cl.c1ccc2c(c1)OCC[C@H]1NCCO[C@H]21` (relative stereo) [Trans-3,4,4a,5,6,11b-Hexahydro-2H-[1]benzoxepino-[5,4-b]-1,4-oxazine Hydrochloride], the values for the ED50 (in the assay on mice [1]; in assay [2]) were 23.9 mg/kg and 1.03 mg/kg, respectively.
Turning to `CN1CCO[C@@H]2c3ccccc3OCC[C@H]21.O=C(O)/C=C\C(=O)O` (relative stereo) [Trans-3,4,4a,5,6,11b-Hexahydro-4-methyl-2H-[1]benzoxepino[5,4-b]-1,4-oxazine Maleate], the ED50 in the assay on mice [3] (setting [5]) turned out to be 42.8 mg/kg; with mice [3] (setting [6]) it was 4.35 mg/kg; in the assay with mice [3] (1 h, oral, pretreatment time 60 minutes), 52.2 mg/kg; in the assay with mice [3] (setting [7]), 13.8 mg/kg; in the assay on mice [3] (setting [8]) it was 26.6 mg/kg; in the assay with mice [1] it was 12.4 mg/kg. This molecule also registered an ED50 in assay [2] of 2.89 mg/kg. The “analgesic effect in brackets beside the ED50” value in the assay with mice [3] (subcutaneous, pretreatment time 120 minutes, @ 256 mg/kg) worked out at 50%.
In the case of `CCN1CCO[C@@H]2c3ccccc3OCC[C@H]21` (relative stereo) [Trans-4-Ethyl-3,4,4a,5,6,11b-hexahydro-2H-[1]benzoxepino[5,4-b]-1,4-oxazine], the ED50 in the assay on mice [3] (setting [5]) was 6.8 mg/kg; with mice [3] (setting [6]), 1.5 mg/kg; in the assay with mice [3] (setting [7]), 8.8 mg/kg; in the assay on mice [3] (setting [8]), over 128 mg/kg.
For the molecule `Cl.Fc1ccc2c(c1)[C@H]1OCCN[C@@H]1CCO2` (relative stereo) [trans-3,4,4a,5,6,11b-hexahydro-10-fluoro-2H-[1]benzoxepino[5,4-b]-1,4-oxazine hydrochloride], the “Change In Systolic Blood Pressure From Control Post Treatment” value in assay [4] (3 mg/kg by gavage, 1 Hour) was -15 mm Hg; in assay [4] (3 mg/kg by gavage, 2 Hours) it was -20 mm Hg; in assay [4] (3 mg/kg by gavage, 3 Hours), -22 mm Hg; in assay [4] (3 mg/kg by gavage, 4 Hours) it was -24 mm Hg; in assay [4] (10 mg/kg by gavage, 1 Hour), -52 mm Hg; in assay [4] (10 mg/kg by gavage, 2 Hours), -44 mm Hg. Also, the “Change In Systolic Blood Pressure From Control Post Treatment” value was -42 mm Hg in assay [4] (10 mg/kg by gavage, 3 Hours); -45 mm Hg in assay [4] (10 mg/kg by gavage, 4 Hours); -84 mm Hg in assay [4] (30 mg/kg by gavage, 1 Hour); -73 mm Hg in assay [4] (30 mg/kg by gavage, 2 Hours); -73 mm Hg in assay [4] (30 mg/kg by gavage, 3 Hours); -72 mm Hg in assay [4] (30 mg/kg by gavage, 4 Hours). For the same molecule, the “effect on systolic arterial blood pressure, in words” value in assay [4] (3, 10, 30 mg/kg by gavage) was “dose related decrease in systolic arterial blood pressure that is statistically significant”. In addition, the “duration of the anti-hypertensive effect” value in assay [4] (at the three doses tested (3, 10, 30 mg/kg, gavage)) is recorded as “at least 4 hours”.

Broadly, the ED50 is the midpoint of the dose-response relation.
